Assay results reported in PubChem BioAssay (NCI).
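Cultured in 96-well plates, cells were exposed to test compound for 48 hours across five concentrations. Abbreviation: GI50, concentration required for 50% inhibition of growth. The concentration for full growth arrest is given as TGI.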

Key:
Experiment in all cases: NCI anticancer screen, dose series, 48 h
786-0 renal = system: 786-0 renal
A498 renal = system: A498 renal
A549 NSCLC = system: A549 NSCLC
ACHN renal = system: ACHN renal
BT-549 breast = system: BT-549 breast
CAKI-1 renal = system: CAKI-1 renal
CCRF-CEM leukemia = system: CCRF-CEM leukemia
COLO 205 colon = system: COLO 205 colon
DU-145 prostate = system: DU-145 prostate
EKVX NSCLC = system: EKVX NSCLC
HCC-2998 colon = system: HCC-2998 colon
HCT-116 colon = system: HCT-116 colon
HCT-15 colon = system: HCT-15 colon
HL-60(TB) leukemia = system: HL-60(TB) leukemia
HOP-62 NSCLC = system: HOP-62 NSCLC
HOP-92 NSCLC = system: HOP-92 NSCLC
HS 578T breast = system: HS 578T breast
HT29 colon = system: HT29 colon
IGROV1 ovarian = system: IGROV1 ovarian
K-562 leukemia = system: K-562 leukemia
KM12 colon = system: KM12 colon
LOX IMVI melanoma = system: LOX IMVI melanoma
M14 melanoma = system: M14 melanoma
MALME-3M melanoma = system: MALME-3M melanoma
MCF7 breast = system: MCF7 breast
MDA-MB-231 breast = system: MDA-MB-231 breast
MDA-MB-435 = system: MDA-MB-435
MOLT-4 leukemia = system: MOLT-4 leukemia
NCI-H226 lung = system: NCI-H226 lung
NCI-H23 lung = system: NCI-H23 lung
NCI-H460 lung = system: NCI-H460 lung
NCI-H522 lung = system: NCI-H522 lung
NCI/ADR-RES ovarian = system: NCI/ADR-RES ovarian
OVCAR-3 ovarian = system: OVCAR-3 ovarian
OVCAR-4 ovarian = system: OVCAR-4 ovarian
OVCAR-5 ovarian = system: OVCAR-5 ovarian
OVCAR-8 ovarian = system: OVCAR-8 ovarian
PC-3 prostate = system: PC-3 prostate
RPMI-8226 leukemia = system: RPMI-8226 leukemia
SF-268 CNS = system: SF-268 CNS
SF-295 CNS = system: SF-295 CNS
SF-539 CNS = system: SF-539 CNS
SK-MEL-2 melanoma = system: SK-MEL-2 melanoma
SK-MEL-28 melanoma = system: SK-MEL-28 melanoma
SK-MEL-5 melanoma = system: SK-MEL-5 melanoma
SK-OV-3 ovarian = system: SK-OV-3 ovarian
SN12C renal = system: SN12C renal
SNB-19 CNS = system: SNB-19 CNS
SNB-75 CNS = system: SNB-75 CNS
SR leukemia = system: SR leukemia
SW-620 colon = system: SW-620 colon
T-47D breast = system: T-47D breast
TK-10 renal = system: TK-10 renal
U251 CNS = system: U251 CNS
UACC-257 melanoma = system: UACC-257 melanoma
UACC-62 melanoma = system: UACC-62 melanoma
UO-31 renal = system: UO-31 renal

O=C(CCCCCCNC(=O)C(O)(O)C(F)(F)F)Nc1ncc(-c2ccc(Br)cc2)s1
GI50 (786-0 renal): 1000 nM
TGI (786-0 renal): > 31.8 µM
GI50 (A498 renal): 130 nM
TGI (A498 renal): 1650 nM
GI50 (A549 NSCLC): 1600 nM
TGI (A549 NSCLC): > 31.8 µM
GI50 (ACHN renal): 908 nM
TGI (ACHN renal): 4.83 µM
GI50 (BT-549 breast): 851 nM
TGI (BT-549 breast): > 31.8 µM
GI50 (CAKI-1 renal): 1220 nM
TGI (CAKI-1 renal): 16.8 µM
GI50 (CCRF-CEM leukemia): 1190 nM
TGI (CCRF-CEM leukemia): > 31.8 µM
GI50 (COLO 205 colon): 826 nM
TGI (COLO 205 colon): 2260 nM
GI50 (DU-145 prostate): 1110 nM
TGI (DU-145 prostate): 6.41 µM
GI50 (EKVX NSCLC): 1330 nM
TGI (EKVX NSCLC): > 31.8 µM
GI50 (HCC-2998 colon): 1360 nM
TGI (HCC-2998 colon): 4.82 µM
GI50 (HCT-116 colon): 273 nM
TGI (HCT-116 colon): 6.73 µM
GI50 (HCT-15 colon): 1430 nM
TGI (HCT-15 colon): 6.28 µM
GI50 (HL-60(TB) leukemia): 1620 nM
TGI (HL-60(TB) leukemia): > 31.8 µM
GI50 (HOP-62 NSCLC): 1230 nM
TGI (HOP-62 NSCLC): 9.1 µM
GI50 (HOP-92 NSCLC): 199 nM
TGI (HOP-92 NSCLC): 1510 nM
GI50 (HS 578T breast): 1040 nM
TGI (HS 578T breast): > 31.8 µM
GI50 (HT29 colon): 735 nM
TGI (HT29 colon): > 31.8 µM
GI50 (IGROV1 ovarian): 846 nM
TGI (IGROV1 ovarian): 4.51 µM
GI50 (K-562 leukemia): 442 nM
TGI (K-562 leukemia): > 31.8 µM
GI50 (KM12 colon): 1250 nM
TGI (KM12 colon): 6.66 µM
GI50 (LOX IMVI melanoma): 564 nM
TGI (LOX IMVI melanoma): 1360 nM
GI50 (M14 melanoma): 1470 nM
TGI (M14 melanoma): > 31.8 µM
GI50 (MALME-3M melanoma): 913 nM
TGI (MALME-3M melanoma): > 31.8 µM
GI50 (MCF7 breast): 1300 nM
TGI (MCF7 breast): > 31.8 µM
GI50 (MDA-MB-231 breast): 607 nM
TGI (MDA-MB-231 breast): 2000 nM
GI50 (MDA-MB-435): 1040 nM
TGI (MDA-MB-435): > 31.8 µM
GI50 (MOLT-4 leukemia): 831 nM
TGI (MOLT-4 leukemia): > 31.8 µM
GI50 (NCI-H226 lung): 2400 nM
TGI (NCI-H226 lung): 14.4 µM
GI50 (NCI-H23 lung): 1210 nM
TGI (NCI-H23 lung): 6.56 µM
GI50 (NCI-H460 lung): 890 nM
TGI (NCI-H460 lung): 8.2 µM
GI50 (NCI-H522 lung): 1450 nM
TGI (NCI-H522 lung): 13.8 µM
GI50 (NCI/ADR-RES ovarian): 1350 nM
TGI (NCI/ADR-RES ovarian): 7.11 µM
GI50 (OVCAR-3 ovarian): 781 nM
TGI (OVCAR-3 ovarian): 2910 nM
GI50 (OVCAR-4 ovarian): 2480 nM
TGI (OVCAR-4 ovarian): > 31.8 µM
GI50 (OVCAR-5 ovarian): 686 nM
TGI (OVCAR-5 ovarian): 5.57 µM
GI50 (OVCAR-8 ovarian): 1370 nM
TGI (OVCAR-8 ovarian): > 31.8 µM
GI50 (PC-3 prostate): 957 nM
TGI (PC-3 prostate): > 31.8 µM
GI50 (RPMI-8226 leukemia): 452 nM
TGI (RPMI-8226 leukemia): > 31.8 µM
GI50 (SF-268 CNS): 1290 nM
TGI (SF-268 CNS): 12.2 µM
GI50 (SF-295 CNS): 628 nM
TGI (SF-295 CNS): 1510 nM
GI50 (SF-539 CNS): 1230 nM
TGI (SF-539 CNS): > 31.8 µM
GI50 (SK-MEL-2 melanoma): 1360 nM
TGI (SK-MEL-2 melanoma): 18.8 µM
GI50 (SK-MEL-28 melanoma): 1120 nM
TGI (SK-MEL-28 melanoma): > 31.8 µM
GI50 (SK-MEL-5 melanoma): 972 nM
TGI (SK-MEL-5 melanoma): 3.43 µM
GI50 (SK-OV-3 ovarian): 1020 nM
TGI (SK-OV-3 ovarian): 3.1 µM
GI50 (SN12C renal): 1250 nM
TGI (SN12C renal): 18.7 µM
GI50 (SNB-19 CNS): 1320 nM
TGI (SNB-19 CNS): 6.61 µM
GI50 (SNB-75 CNS): 1840 nM
TGI (SNB-75 CNS): > 31.8 µM
GI50 (SR leukemia): 478 nM
TGI (SR leukemia): > 31.8 µM
GI50 (SW-620 colon): 840 nM
TGI (SW-620 colon): 3.1 µM
GI50 (T-47D breast): 808 nM
TGI (T-47D breast): 25.8 µM
GI50 (TK-10 renal): 456 nM
TGI (TK-10 renal): > 31.8 µM
GI50 (U251 CNS): 830 nM
TGI (U251 CNS): > 31.8 µM
GI50 (UACC-257 melanoma): 1920 nM
TGI (UACC-257 melanoma): > 31.8 µM
GI50 (UACC-62 melanoma): 675 nM
TGI (UACC-62 melanoma): 2380 nM
GI50 (UO-31 renal): 745 nM
TGI (UO-31 renal): 4.41 µM
